From ChEMBL document CHEMBL4219236, “Synthesis of some novel dimethine, bis-dimethine cyanine dyes and octacosamethine cyanine dyes endowed with promising biological potency against (HepG2), (Hela), (MCF-7), (MIA), (SN12C) and (H358) cell lines” (Bioorg Med Chem Lett, 2018)
Converted amounts (≈) assume the structure as drawn.

Legend:
Assay type in all cases: functional, cell-based
[1] = test system: SN12C; assay: Cytotoxicity against human SN12C cells assessed as decrease in cell viability after 96 hrs
[2] = test system: NCI-H358; assay: Cytotoxicity against human NCI-H358 cells assessed as decrease in cell viability after 96 hrs; details: NCI-H358, 96 h
[3] = test system: HeLa; assay: Cytotoxicity against human HeLa cells assessed as decrease in cell viability after 96 hrs
[4] = test system: MCF7; assay: Cytotoxicity against human MCF7 cells assessed as decrease in cell viability after 96 hrs; details: MCF7, 96 h
[5] = test system: MIA PaCa-2; assay: Cytotoxicity against human MIAPaCa2 cells assessed as decrease in cell viability after 96 hrs; details: MIA PaCa-2, 96 h
[6] = test system: HepG2; assay: Cytotoxicity against human HepG2 cells assessed as decrease in cell viability after 96 hrs; details: HepG2, 96 h

| SMILES | IC50 [1] [µg/mL] | IC50 [2] [µg/mL] | IC50 [3] [µg/mL] | IC50 [4] [µg/mL] | IC50 [5] [µg/mL] | IC50 [6] [µg/mL] |
| --- | --- | --- | --- | --- | --- | --- |
| C(=C(/c1ccccc1)c1cccc[n+]1C1CCC([n+]2ccccc2/C(=C/c2cc3c4c(c2)CCCN4CCC3)c2ccccc2)CC1)/c1cc2c3c(c1)CCCN3CCC2.[Br-].[Br-] (configuration not stated) | 52.6 | 75.6 | 49.8 | 35.6 | 55.6 | 53.1 |
| O=c1[nH]cc(F)c(=O)[nH]1 [FLUOROURACIL] | 6.5 (≈ 50 µM) | 6.9 (≈ 53 µM) | 3.2 (≈ 24.6 µM) |  | 3.5 (≈ 26.9 µM) |  |
| O=CC1=Cc2cc3cc(/C=C(\c4ccccc4)c4cccc[n+]4C4CCC([n+]5ccccc5Cc5ccccc5)CC4)c(cc4nc(cc5ccc(cc1n2)[nH]5)C=C4)[nH]3.[Br-].[Br-] (configuration not stated) | 20.3 | 23.3 | 23.7 | 19.1 | 29.3 | 25.2 |
| O=CC1=Cc2cc3cc(/C=C(\c4ccccc4)c4cccc[n+]4C4CCC([n+]5ccccc5/C(=C/c5cc6cc7nc(cc8ccc(cc9nc(cc5[nH]6)C=C9)[nH]8)C(C=O)=C7)c5ccccc5)CC4)c(cc4nc(cc5ccc(cc1n2)[nH]5)C=C4)[nH]3.[Br-].[Br-] (configuration not stated) | 20 | 15.2 | 21 | 16 | 20 | 21 |
| O=S(=O)([O-])c1ccccc1/C=C(\c1ccccc1)c1cccc[n+]1C1CCC([n+]2ccccc2/C(=C/c2ccccc2S(=O)(=O)[O-])c2ccccc2)CC1.[Br-].[Br-].[Na+].[Na+] (configuration not stated) | 26.3 | 26.3 | 32.3 | 22.5 | 33.5 | 25.4 |
| C(=C(/c1ccccc1)c1cccc[n+]1C1CCC([n+]2ccccc2Cc2ccccc2)CC1)/c1cc2c3c(c1)CCCN3CCC2.[Br-].[Br-] (configuration not stated) | 86.5 | 36.5 | 101 | 96.9 | 101 | 62.5 |
| C1=Cc2cc3cc(/C=C(\c4ccccc4)c4cccc[n+]4C4CCC([n+]5ccccc5/C(=C/c5cc6cc7nc(cc8ccc(cc9nc(cc5[nH]6)C=C9)[nH]8)C=C7)c5ccccc5)CC4)c(cc4nc(cc5ccc(cc1n2)[nH]5)C=C4)[nH]3.[Br-].[Br-] (configuration not stated) | 31.1 | 49.6 | 35.3 | 45.6 | 45.6 | 33 |
| C1=Cc2cc3cc(/C=C(\c4ccccc4)c4cccc[n+]4C4CCC([n+]5ccccc5Cc5ccccc5)CC4)c(cc4nc(cc5ccc(cc1n2)[nH]5)C=C4)[nH]3.[Br-].[Br-] (configuration not stated) | 38.9 | 38.1 | 40.3 | 45.9 | 45.9 | 48 |
| O=S(=O)([O-])c1ccccc1/C=C(\c1ccccc1)c1cccc[n+]1C1CCC([n+]2ccccc2Cc2ccccc2)CC1.[Br-].[Br-].[Na+] (configuration not stated) | 25 | 30 | 39.6 | 29 | 50 | 32.2 |
